Read-outs that look alike come from different tables or passages of the source. No end group written: not given here.
What was measured:
Type in all cases: cell-based
[1] = test system: HVT (turkey herpes virus); assay: HVT multiplication suppression, plaque assay in CEF cells; details: for Ratio (relative ratio of virus titer, no peptide = 1) / Titer: HVT FC-126 strain in CEF cells; for Titer: six days; for viral multiplication suppression effect (antiviral activity), in words: HVT in CEF cells, peptide 10, 50, 100 μM, number and size of plaques
[2] = test system: MDCK (Madrin Darby Canine Kidney) cell; assay: Cytotoxicity control, MDCK cells without virus (Example 4); details: 48 hours
Procedure: The culture supernatant was removed from wells where a full sheet (monolayer) composed of MDCK cells was formed by the above culture. 2 mL of PBS was added to the wells and the wells were washed. This washing was repeated twice. Next, a viral solution prepared with MEM medium (no FBS added, containing 0.02% dextran and 1 μg/mL trypsin) so as to have 10^4 PFU/mL was used for inoculation at 0.1 mL per well, and culture was incubated in the presence of 5% CO2, at 34° C. for one hour, to adsorb the virus to the cells. After the incubation, was added 2 mL of MEM medium (no FBS added, containing 0.02% dextran and 1 μg/mL trypsin) containing the test peptide at a given concentration so as to have 50 μM and 10 μM final concentrations of peptide in each well after addition. Note that a well was prepared as a control plot (control), in which 2 mL of the above-mentioned MEM medium not containing peptide was added. In addition, as the control group for evaluating the cytotoxicity of the test peptide, 2 mL of MEM medium (no FBS added, containing 0.02% dextran and 1 μg/mL trypsin) containing the test peptide at a given concentration was added each to wells (with full sheet formed) containing MDCK cells to which the above-mentioned viral solution was not added (that is to say, not containing virus). Then incubation was carried out in the presence of 5% CO2 at 34° C. for 48 hours.

[3] = test system: MDV (Marek's disease virus); details: for antiviral activity (viral multiplication suppression effect) against MDV, in words: MDV in CEF cells, peptide 50 and 100 μM; for Ratio / Titer: MDV type 1 Md5 strain in CEF cells; for Titer: four days

Row | Substance | Ratio (relative ratio of virus titer, no peptide = 1) ([1]; peptide 10 μM) | Titer ([1]; peptide 10 μM) | Ratio (relative ratio of virus titer, no peptide = 1) ([1]; peptide 50 μM) | Titer ([1]; peptide 50 μM) | Ratio (relative ratio of virus titer, no peptide = 1) ([1]; peptide 100 μM) | Titer ([1]; peptide 100 μM) | viral multiplication suppression effect (antiviral activity), in words [1] | also measured
1 | LPPLERLTLD RQARRNRRRRWR-CONH2 (LPPLERLTLDRQARRNRRRRWR-NH2) [Sample 2, NES … on the N-terminal side, NLS … on the C-terminal side; 22 residues] | 0.91 | 8.0 × 10^4 PFU/mL | 0.59 | 5.2 × 10^4 PFU/mL | 0.57 | 5.0 × 10^4 PFU/mL | – | –
2 | YGRKKRRQRRRLPPLERLTLD-NH2 [Sample 3, YGRKKRRQRRR LPPLERLTLD-CONH2] | – | – | – | – | – | – | – | cytotoxicity [2]: no cytotoxicity was observed
3 | RKKKRKV-CONH2 (RKKKRKV-NH2) [Comparative Sample 4, reference compound] | – | – | – | – | – | – | no viral multiplication suppression effect | –
4 | RQARRNRRRRWR LPPLERLTLD-CONH2 (RQARRNRRRRWRLPPLERLTLD-NH2) [Sample 1, HIV REV-derived NLS on the N-terminal side, HIV-derived NES on the C-terminal side; 22 residues] | 0.75 | 7.8 × 10^4 PFU/mL | 0.25 | 2.6 × 10^4 PFU/mL | 0.13 | 1.4 × 10^4 PFU/mL | – | antiviral activity (viral multiplication suppression effect) against MDV, in words [3]: satisfactory antiviral activity; Ratio ([3]; peptide 50 μM): 0.36; Titer ([3]; peptide 50 μM): 2.40 × 10^6 TCID50; Ratio ([3]; peptide 100 μM): 0.1; Titer ([3]; peptide 100 μM): 6.76 × 10^5 TCID50
5 | RKKKRKV LALKAGLDI-CONH2 (RKKKRKVLALKAGLDI-NH2) [Sample 4, modified SV40 NLS plus modified mouse PKI NES with one leucine deleted; 16 residues] | 0.95 | 1.8 × 10^4 PFU/mL | 0.47 | 9.0 × 10^3 PFU/mL | 0.24 | 4.5 × 10^3 PFU/mL | – | antiviral activity (viral multiplication suppression effect) against MDV, in words [3]: satisfactory antiviral activity; Ratio ([3]; peptide 50 μM): 0.63; Titer ([3]; peptide 50 μM): 4.27 × 10^6 TCID50; Ratio ([3]; peptide 100 μM): 0.47; Titer ([3]; peptide 100 μM): 3.16 × 10^6 TCID50
6 | RQARRNRRRRWR-CONH2 (RQARRNRRRRWR-NH2) [Comparative Sample 1, reference compound] | – | – | – | – | – | – | no viral multiplication suppression effect | –
7 | YGRKKRRQRRR-CONH2 (YGRKKRRQRRR-NH2) [Comparative Sample 3, reference compound] | – | – | – | – | – | – | no viral multiplication suppression effect | –
8 | LPPLERLTLD-CONH2 (LPPLERLTLD-NH2) [Comparative Sample 2, reference compound] | – | – | – | – | – | – | no viral multiplication suppression effect | –

Source: US8138146B2, “Antiviral peptide and antiviral agent” (priority 2006, dated 2012)
